Results published in paper PMC11367099 (Heliyon, 2024).

What was measured:
Experiment in all cases: Fluorescein-AMP
Format in all cases: biochemical
[1] = target: PDE3A (Homo sapiens, UniProt Q14432)
[2] = target: PDE8A1 (Homo sapiens, UniProt O60658)
[3] = target: PDE5A (Homo sapiens, UniProt O76074)
[4] = target: PDE10A2 (Homo sapiens, UniProt Q9Y233)
Chain of PDE10A2 (Q9Y233 267-1055): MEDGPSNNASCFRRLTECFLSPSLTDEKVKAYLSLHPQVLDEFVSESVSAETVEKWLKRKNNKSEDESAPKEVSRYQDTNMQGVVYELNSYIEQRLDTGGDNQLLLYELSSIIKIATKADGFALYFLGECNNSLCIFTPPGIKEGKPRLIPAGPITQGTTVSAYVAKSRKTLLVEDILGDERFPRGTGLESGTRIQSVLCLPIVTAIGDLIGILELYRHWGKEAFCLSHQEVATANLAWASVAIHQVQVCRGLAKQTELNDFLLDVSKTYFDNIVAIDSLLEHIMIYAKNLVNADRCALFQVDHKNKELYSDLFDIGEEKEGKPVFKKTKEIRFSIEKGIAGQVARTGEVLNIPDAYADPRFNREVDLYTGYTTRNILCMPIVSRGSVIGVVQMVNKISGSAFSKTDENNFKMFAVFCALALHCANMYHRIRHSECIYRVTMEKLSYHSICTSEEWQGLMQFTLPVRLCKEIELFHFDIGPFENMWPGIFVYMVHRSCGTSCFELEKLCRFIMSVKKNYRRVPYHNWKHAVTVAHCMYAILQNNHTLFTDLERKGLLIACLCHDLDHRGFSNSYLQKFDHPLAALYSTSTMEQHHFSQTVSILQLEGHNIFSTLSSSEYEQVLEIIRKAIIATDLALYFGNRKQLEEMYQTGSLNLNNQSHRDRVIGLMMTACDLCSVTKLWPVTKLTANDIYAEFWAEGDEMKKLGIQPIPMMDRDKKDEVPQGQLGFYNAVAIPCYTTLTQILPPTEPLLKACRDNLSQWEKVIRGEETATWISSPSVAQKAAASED

Chain of PDE3A (Q14432 whole entry): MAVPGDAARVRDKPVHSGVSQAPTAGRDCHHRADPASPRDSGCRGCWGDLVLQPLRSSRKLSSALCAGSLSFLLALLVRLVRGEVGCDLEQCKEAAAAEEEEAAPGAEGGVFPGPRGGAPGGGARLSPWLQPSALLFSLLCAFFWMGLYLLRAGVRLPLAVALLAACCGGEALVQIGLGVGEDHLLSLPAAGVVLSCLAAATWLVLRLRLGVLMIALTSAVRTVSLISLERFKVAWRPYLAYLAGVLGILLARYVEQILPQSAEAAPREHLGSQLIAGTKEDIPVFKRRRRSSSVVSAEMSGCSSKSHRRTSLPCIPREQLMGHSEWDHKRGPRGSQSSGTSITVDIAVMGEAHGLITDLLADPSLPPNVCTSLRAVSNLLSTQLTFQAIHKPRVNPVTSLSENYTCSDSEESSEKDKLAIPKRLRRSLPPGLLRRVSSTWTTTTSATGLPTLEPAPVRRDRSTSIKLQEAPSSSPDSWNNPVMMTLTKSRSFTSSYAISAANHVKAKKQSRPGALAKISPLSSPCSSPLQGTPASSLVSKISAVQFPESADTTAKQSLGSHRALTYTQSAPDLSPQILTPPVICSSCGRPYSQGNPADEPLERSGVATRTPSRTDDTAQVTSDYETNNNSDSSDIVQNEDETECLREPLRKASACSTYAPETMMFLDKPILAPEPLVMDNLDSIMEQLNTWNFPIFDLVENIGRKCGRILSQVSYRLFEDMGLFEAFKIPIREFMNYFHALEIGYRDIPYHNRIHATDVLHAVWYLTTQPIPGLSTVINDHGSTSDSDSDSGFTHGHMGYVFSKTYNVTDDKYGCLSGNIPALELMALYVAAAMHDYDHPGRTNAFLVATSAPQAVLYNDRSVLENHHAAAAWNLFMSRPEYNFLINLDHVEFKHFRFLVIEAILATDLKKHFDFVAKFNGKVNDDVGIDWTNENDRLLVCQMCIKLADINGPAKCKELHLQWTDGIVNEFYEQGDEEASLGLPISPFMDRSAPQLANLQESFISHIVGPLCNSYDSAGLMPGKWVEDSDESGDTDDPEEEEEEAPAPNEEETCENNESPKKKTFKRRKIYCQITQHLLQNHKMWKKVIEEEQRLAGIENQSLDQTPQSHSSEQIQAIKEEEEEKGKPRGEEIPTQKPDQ
Chain of PDE8A1 (O60658 whole entry): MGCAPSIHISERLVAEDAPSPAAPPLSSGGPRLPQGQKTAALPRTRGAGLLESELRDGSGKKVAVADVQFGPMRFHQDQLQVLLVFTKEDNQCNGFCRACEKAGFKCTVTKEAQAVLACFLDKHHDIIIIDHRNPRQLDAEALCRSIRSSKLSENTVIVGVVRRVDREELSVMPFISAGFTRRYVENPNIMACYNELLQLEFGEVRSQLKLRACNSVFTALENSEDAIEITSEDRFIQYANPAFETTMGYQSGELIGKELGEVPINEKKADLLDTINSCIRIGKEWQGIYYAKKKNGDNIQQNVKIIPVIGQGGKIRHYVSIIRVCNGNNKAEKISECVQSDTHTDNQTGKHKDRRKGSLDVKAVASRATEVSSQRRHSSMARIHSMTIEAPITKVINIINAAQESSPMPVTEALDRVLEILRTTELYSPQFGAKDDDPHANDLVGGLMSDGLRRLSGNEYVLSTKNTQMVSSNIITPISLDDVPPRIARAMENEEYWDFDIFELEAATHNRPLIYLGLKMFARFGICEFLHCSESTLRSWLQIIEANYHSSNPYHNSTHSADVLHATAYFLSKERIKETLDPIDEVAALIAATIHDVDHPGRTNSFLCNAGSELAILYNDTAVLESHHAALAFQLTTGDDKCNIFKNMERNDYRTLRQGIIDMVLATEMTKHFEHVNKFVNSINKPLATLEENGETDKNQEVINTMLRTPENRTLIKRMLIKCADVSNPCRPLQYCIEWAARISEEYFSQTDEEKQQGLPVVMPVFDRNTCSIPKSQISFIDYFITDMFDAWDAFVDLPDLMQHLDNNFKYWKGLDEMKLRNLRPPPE

IC50 [1]: 5.19 µM
IC50 [2]: 26.3 µM
IC50 [3]: 6.54 µM
IC50 [4]: 9.99 µM
SMILES: COc1cc(-c2cc(=O)c3c(O)c(OC)c(O)c(OC)c3o2)ccc1O [Sudachitin]
